Experimental data from patent US11160797B2, “Pyridinone derivatives and their use as selective ALK-2 inhibitors” (NOVARTIS AG, priority 2017, dated 2021).

Key:
[1] = biological target: T1, wild-type ALK2 (aa172-499) (Homo sapiens (Human), UniProt Q04771); assay: ADPGlo biochemical autophosphorylation assay, ALK2; details: 15 uM ATP
[2] = biological target: ALK6 (aa168-495) (Homo sapiens (Human), UniProt O00238); assay: Caliper biochemical peptide phosphorylation assay, ALK6; details: 15 uM ATP
[3] = biological target: ALK1 (aa166-493) (Homo sapiens (Human), UniProt P37023); assay: Caliper biochemical peptide phosphorylation assay, ALK1; details: 15 uM ATP
ALK1 (aa166-493), sequence (P37023 166-493): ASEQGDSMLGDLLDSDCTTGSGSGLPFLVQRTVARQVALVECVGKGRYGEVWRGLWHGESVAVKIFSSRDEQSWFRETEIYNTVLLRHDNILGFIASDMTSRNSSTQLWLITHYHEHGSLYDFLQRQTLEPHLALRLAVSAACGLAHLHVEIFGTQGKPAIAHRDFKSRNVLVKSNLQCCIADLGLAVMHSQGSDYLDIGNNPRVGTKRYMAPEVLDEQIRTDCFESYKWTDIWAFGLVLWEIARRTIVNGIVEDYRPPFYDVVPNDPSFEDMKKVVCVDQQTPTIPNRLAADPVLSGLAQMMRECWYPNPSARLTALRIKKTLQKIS

[4] = biological target: T1, wild-type ALK2 (aa172-499); assay: Caliper biochemical peptide phosphorylation assay, ALK2; details: Caliper peptide phosphorylation, 15 uM ATP; read-out: ALK2 IC50
[5] = tested on: HuH7 cells, BMP response element (BRE) luciferase reporter, BMP6 stimulated; assay: BMP signaling reporter gene assay; type: cell-based; details: Homo sapiens, Huh-7; BMP6 100 ng/ml; read-out: MSD HuH7 cell BMP reporter IC50
Description: A human liver hepatocellular carcinoma cell line (HuH7) stably transfected with a reporter plasmid consisting of the human BMP response element (BRE) from the Id1 promoter fused to a luciferase reporter gene was generated through lentiviral transduction.
Assays were performed in 384-well flat bottom polystyrene microtiter plates (cell culture treated) with sterile lids. The cells were starved through medium exchange in Blasticidine- and FCS-free medium 16 h before the assay. Prior to the assay, cells were detached from the stock flask using trypsin/EDTA and counted. A cell suspension in the same medium without Blasticidin and FCS was prepared. 2×10^4 cells in a total volume of 40 ul were added to each well of a plate already containing serial dilutions of each compound in DMSO (final DMSO concentration 0.5%). […] Assay plates are incubated for another 5 hours at 37° C., 5% CO2 before luciferase levels are measured.
The amount of expressed luciferase is quantified using the Steady-Glo® Luciferase Assay System (Promega #E2520).

[6] = biological target: ALK2 FOP mutant (aa172-499 R206H) (Homo sapiens (Human), UniProt Q04771, R206H); assay: Caliper biochemical peptide phosphorylation assay, ALK2 FOP; details: Caliper peptide phosphorylation, R206H, 15 uM ATP; read-out: ALK2 FOP EPK IC50
ALK2 FOP mutant (aa172-499 R206H), sequence (Q04771 172-499 R206H): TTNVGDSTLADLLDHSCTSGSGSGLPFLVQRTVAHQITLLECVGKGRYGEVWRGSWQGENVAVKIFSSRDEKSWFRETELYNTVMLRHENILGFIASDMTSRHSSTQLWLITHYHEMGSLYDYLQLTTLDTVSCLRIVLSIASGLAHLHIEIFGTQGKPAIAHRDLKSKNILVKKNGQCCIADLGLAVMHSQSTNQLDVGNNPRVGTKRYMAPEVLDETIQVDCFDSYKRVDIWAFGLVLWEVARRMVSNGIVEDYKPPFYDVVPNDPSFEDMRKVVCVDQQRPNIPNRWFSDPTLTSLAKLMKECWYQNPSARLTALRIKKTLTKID

[7] = biological target: ALK3 (aa198-525) (Homo sapiens (Human), UniProt P36894); assay: ADPGlo biochemical autophosphorylation assay, ALK3; details: 15 uM ATP
ALK3 (aa198-525), sequence (P36894 198-525): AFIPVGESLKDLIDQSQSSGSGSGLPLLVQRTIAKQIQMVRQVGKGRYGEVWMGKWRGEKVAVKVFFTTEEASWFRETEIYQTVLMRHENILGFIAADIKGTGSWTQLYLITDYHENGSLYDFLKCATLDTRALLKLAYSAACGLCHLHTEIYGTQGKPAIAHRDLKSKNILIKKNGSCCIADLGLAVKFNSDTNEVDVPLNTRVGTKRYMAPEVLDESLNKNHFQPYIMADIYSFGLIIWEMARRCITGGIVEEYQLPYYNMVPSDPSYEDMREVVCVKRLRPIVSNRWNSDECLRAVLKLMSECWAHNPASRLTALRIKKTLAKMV

[8] = biological target: ALK5 (aa162-503) (Homo sapiens (Human), UniProt P36897); assay: Caliper biochemical peptide phosphorylation assay, ALK5; details: 15 uM ATP
ALK5 (aa162-503), sequence (P36897 162-503): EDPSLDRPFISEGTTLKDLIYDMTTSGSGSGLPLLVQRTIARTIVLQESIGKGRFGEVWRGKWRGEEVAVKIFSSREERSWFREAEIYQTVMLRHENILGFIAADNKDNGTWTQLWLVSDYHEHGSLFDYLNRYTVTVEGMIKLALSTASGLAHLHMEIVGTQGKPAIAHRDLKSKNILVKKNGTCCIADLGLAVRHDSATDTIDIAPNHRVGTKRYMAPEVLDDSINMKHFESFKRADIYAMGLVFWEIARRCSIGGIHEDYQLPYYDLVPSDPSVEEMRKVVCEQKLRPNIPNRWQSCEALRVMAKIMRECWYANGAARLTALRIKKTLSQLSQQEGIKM
Text: For all biochemical assays, human recombinant proteins were expressed in and purified from baculo virus transfected insect cells. The constructs comprised the GS-domain and kinase domain of wild-type ALK2 (aa172-499), ALK2 FOP mutant (aa172-499 R206H), ALK3 (aa198-525), ALK5 (aa162-503) and ALK6 (aa168-495).
A kinase selectivity panel which measures substrate peptide phosphorylation was set-up for wild-type ALK2 (aa172-499), ALK2 FOP mutant (aa172-499 R206H), ALK1 (aa166-493), ALK5 (aa162-503) and ALK6 (aa168-495). The technology used for the described assay is based on the separation and quantification of substrate and product in an electrical field. In the course of the kinase reaction the peptide substrate is phosphorylated by a kinase. […] Due to this difference in charge the phosphorylated und unphosphorylated peptides migrate with different velocities in an electrical field.
In the applied method, this separation takes place inside a chip that contains a complex capillary system for simultaneous analysis of 12 samples (“LabChip EZ Reader 12-sipper chip”, Caliper Technologies Corp., Mountain View, USA). In order to allow the detection and quantification of the peptides in the capillary system, the peptides carry a fluorescent label (fluorescein). With this label the peptides can be quantified by fluorescence intensity through the instruments laser and detection system (LC3000, Caliper Life Sciences).
The assays were performed in 384-well, low volume microtiter assay plates in a final reaction volume of 9 ul. Dose-response curves were generated by incubating 10 nM of each kinase together with 2 uM of the fluorescently labeled substrate peptide 5-Fluo-Ahx-[…]-T-[…]-amid (10 mM stock solution in DMSO) in 50 mM Hepes pH 7.5, 0.02% Tween 20, 0.02% BSA, 1 mM DTT, 10 uM Na3VO4, 10 mM ß-Glycerolphosphate, 1 mM MgCl2, 12 mM MnCl2 (ALK1 and ALK6 7 mM) and 15 uM ATP for 60 min at 30° C. in the presence or absence of compound diluted in DMSO.
Kinase reactions were terminated by adding 15 ul STOP buffer (100 mM HEPES pH 7.5, 5% DMSO, 0.1% Caliper coating reagent, 10 mM EDTA, and 0.015% Brij35.
Plates with terminated kinase reactions were transferred to the Caliper LC3000 workstation (Caliper Technologies Corp., Mountain View, USA) for reading. The relative amount of phosphorylated peptide r, was calculated using the heights of the substrate peak, s, and the product peak, p:r=p/(p+s).
IC50 values for a given antagonist correspond to the compound concentration needed to inhibit half of the maximum signal of the kinase reaction.

ALK6 (aa168-495), sequence (O00238 168-495): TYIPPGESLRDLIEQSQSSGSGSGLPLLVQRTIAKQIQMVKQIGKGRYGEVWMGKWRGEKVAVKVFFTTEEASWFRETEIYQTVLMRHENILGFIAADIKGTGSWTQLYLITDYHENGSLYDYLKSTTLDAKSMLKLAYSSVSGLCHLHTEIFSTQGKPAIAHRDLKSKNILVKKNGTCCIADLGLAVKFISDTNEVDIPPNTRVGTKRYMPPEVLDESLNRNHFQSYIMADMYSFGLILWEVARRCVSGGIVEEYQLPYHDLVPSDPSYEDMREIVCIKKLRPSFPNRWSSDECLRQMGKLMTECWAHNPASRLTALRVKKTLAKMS
T1 sequence (Q04771 172-499): as the sequence (Q04771 172-499 R206H) above, with H35R counted along it

SMILES	IC50 [1] [nM]	IC50 [2] [nM]	IC50 [3] [nM]	IC50 [4] [nM]	IC50 [5] [nM]	IC50 [6] [nM]	IC50 [7] [nM]	IC50 [8] [nM]
COc1cc(-c2cncc(-c3ccc4c(c3)CC(=O)N4C)c2)cn(C(C)C)c1=O [Example 2, 5-(1′-Isopropyl-5′-methoxy-6′-oxo-1′,6′-dihydro-[3,3′-bipyridin]-5-yl)-1-methylindolin-2-one]	87	940	410	80	50	60	520	610
CN1C(=O)Cc2cc(-c3cncc(-c4ccc(=O)n(C5CCC5)c4)c3)ccc21 [Example 6, 5-(1′-Cyclobutyl-6′-oxo-1′,6′-dihydro-[3,3′-bipyridin]-5-yl)-1-methylindolin-2-one]	230	2900	1700	150	660	180	3600	5300
CN1C(=O)Cc2cc(-c3cncc(-c4ccc(=O)n(C5CCCC5)c4)c3)ccc21 [Example 8, 5-(1′-cyclopentyl-6′-oxo-1′,6′-dihydro-[3,3′-bipyridin]-5-yl)-1-methylindolin-2-one]	200	5300	1500	170	150	120	2400	9600
CN1C(=O)Cc2cc(-c3cncc(-c4ccc(=O)n(CC5CCC5)c4)c3)ccc21 [Example 11, 5-(1′-(cyclobutylmethyl)-6′-oxo-1′,6′-dihydro-[3,3′-bipyridin]-5-yl)-1-methylindolin-2-one]	600	> 10000	4700	490	640	470	7900	> 10000
CN1C(=O)Cc2cc(-c3cncc(-c4ccc(=O)n(CC(F)(F)F)c4)c3)ccc21 [Example 12, 1-methyl-5-(6′-oxo-1′-(2,2,2-trifluoroethyl)-1′,6′-dihydro-[3,3′-bipyridin]-5-yl)indolin-2-one]	1500	7000	6800	800	800	810	> 15100	> 10000
CCC(CC)Cn1cc(-c2cncc(-c3ccc4c(c3)CC(=O)N4C)c2)ccc1=O [Example 13, 5-(1′-(2-ethylbutyl)-6′-oxo-1′,6′-dihydro-[3,3′-bipyridin]-5-yl)-1-methylindolin-2-one]	680	> 10000	5300	620	790	570	8500	> 10000
COCn1cc(-c2cncc(-c3ccc4c(c3)CC(=O)N4C)c2)ccc1=O [Example 15, 5-(1′-(methoxymethyl)-6′-oxo-1′,6′-dihydro-[3,3′-bipyridin]-5-yl)-1-methylindolin-2-one]	880	> 10000	5100	760	1500	740	9900	> 10000
CCN1c2ccc(-c3cncc(-c4ccc(=O)n(C(C)C)c4)c3)cc2CS1(=O)=O [Example 49, 5′-(1-ethyl-2,2-dioxido-1,3-dihydrobenzo[c]isothiazol-5-yl)-1-isopropyl-[3,3′-bipyridin]-6(1H)-one]	130	1100	570	140	–	130	670	2900
CC(C)n1cc(-c2cncc(-c3ccc4c(c3)CS(=O)(=O)N4CC3CCC3)c2)ccc1=O [Example 51, 5′-(1-(cyclobutylmethyl)-2,2-dioxido-1,3-dihydrobenzo[c]isothiazol-5-yl)-1-isopropyl-[3,3′-bipyridin]-6(1H)-one]	160	1500	780	160	–	150	880	2700
